The source of these data is ChEMBL document CHEMBL4477229, “Design and Characterization of Superpotent Bivalent Ligands Targeting Oxytocin Receptor Dimers via a Channel-Like Structure” (J Med Chem, 2016).

Numbering of substitutions follows the chain as printed. pEC50: −log10 of the molar value. The source made the active and inactive calls. No cut-off for these calls is given here. Numbered stars: 1 amine (or outer) side, 2 acyl side, 3 side chain; on linkers, the order of the positions; unused ones are H or OH. Bridge positions count the residues as written; N and C are the ends. Square brackets hold non-standard residues; d marks the D form. Peptide text beside a SMILES is read from it. I, II: the chains in the order shown. * marks the point of attachment. C14 diacid = O=C(O)CCCCCCCCCCCCC(=O)*; Suberoyl = O=C(CCCCCCC(=O)[*:2])[*:1]; Mpa = O=C(O)CCS

Assay [1] has as its target T1, Oxytocin receptor (Homo sapiens, UniProt P30559, C47A/V43A). Kind of assay: Agonist activity at human oxytocin receptor V43A/C47A double mutant high affinity site expressed in HEK293 cells coexpressing Rluc8-tagged Galphaq, N-terminal GFP-tagged Ggamma2 and Gbeta1 protein incubated for 2 mins by Gq protein activation based BRET assay. The class given is cell-based. Background: BRET reads energy transfer from a luciferase to a nearby fluorophore.

For assay [2], the target named is T2, Oxytocin receptor (Homo sapiens) (UniProt P30559).
T2 sequence (whole entry): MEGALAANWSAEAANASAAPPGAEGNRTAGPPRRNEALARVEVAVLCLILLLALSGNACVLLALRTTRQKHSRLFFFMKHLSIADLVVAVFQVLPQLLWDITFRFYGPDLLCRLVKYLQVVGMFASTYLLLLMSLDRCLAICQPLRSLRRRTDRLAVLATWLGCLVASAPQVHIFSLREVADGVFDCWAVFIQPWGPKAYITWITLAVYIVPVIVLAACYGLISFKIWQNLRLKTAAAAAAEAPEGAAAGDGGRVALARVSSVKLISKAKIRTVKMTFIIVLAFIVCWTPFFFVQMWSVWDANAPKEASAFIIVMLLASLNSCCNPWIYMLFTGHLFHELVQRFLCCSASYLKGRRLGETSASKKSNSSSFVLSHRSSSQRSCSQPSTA
Kind of assay: (§1) Agonist activity at human oxytocin receptor expressed in HEK293 cells coexpressing Rluc8-tagged Galphaq, N-terminal GFP-tagged Ggamma2 and Gbeta1 protein incubated for 2 mins in presence of TMH5-TAT peptide by Gq protein activation based BRET assay. Format: cell-based. On the set-up: unit not given here.

In assay [3] the target is T3, Oxytocin receptor (Homo sapiens, UniProt P30559).
T3 sequence (P30559 whole entry): T2 sequence (whole entry)
Described as §1. Format: cell-based.

For assay [4], the target named is T2, Oxytocin receptor (Homo sapiens). Kind of assay: (§2) Agonist activity at human oxytocin receptor expressed in HEK293 cells coexpressing Rluc8-tagged Galphaq, N-terminal GFP-tagged Ggamma2 and Gbeta1 protein incubated for 2 mins in presence of TMH1-TAT peptide by Gq protein activation based BRET assay. The arrangement: unit not given here. Format: cell-based.
Assay [5] addresses T3, Oxytocin receptor. The description is as §2. The class given is cell-based.
In assay [6] the test system is T4, Oxytocin receptor (Homo sapiens), P30559 [C47A].
T4 sequence (whole entry): T2 sequence (whole entry) with C47A
Kind of assay: (§3) Agonist activity at human oxytocin receptor C47A mutant expressed in HEK293 cells coexpressing Rluc8-tagged Galphaq, N-terminal GFP-tagged Ggamma2 and Gbeta1 protein incubated for 2 mins by Gq protein activation based BRET assay. On the set-up: unit not given here. The class given is cell-based.

Assay [7] concerns the target T2, Oxytocin receptor (Homo sapiens). Kind of assay: (§4) Agonist activity at human oxytocin receptor expressed in HEK293 cells coexpressing Rluc8-tagged Galphaq, N-terminal GFP-tagged Ggamma2 and Gbeta1 protein incubated for 2 mins by Gq protein activation based BRET assay. The class given is cell-based. On the set-up: unit not given here.
Assay [8] deals with T3, Oxytocin receptor. The description is as §4. The class given is cell-based.
Assay [9] relates to T5, Oxytocin receptor (Homo sapiens), P30559 [V43A,C47A].
T5 sequence (whole entry): T2 sequence (whole entry) with V43A, C47A
Kind of assay: (§5) Agonist activity at human oxytocin receptor V43A/C47A double mutant expressed in HEK293 cells coexpressing Rluc8-tagged Galphaq, N-terminal GFP-tagged Ggamma2 and Gbeta1 protein incubated for 2 mins by Gq protein activation based BRET assay. Format: cell-based. The arrangement: unit not given here.

Assay [10] concerns the target T1, Oxytocin receptor. Kind of assay: Agonist activity at human oxytocin receptor V43A/C47A double mutant low affinity site expressed in HEK293 cells coexpressing Rluc8-tagged Galphaq, N-terminal GFP-tagged Ggamma2 and Gbeta1 protein incubated for 2 mins by Gq protein activation based BRET assay. The class given is cell-based.
Assay [11] deals with T6, Oxytocin receptor (Homo sapiens, UniProt P30559, C47A). Kind of assay: Agonist activity at human oxytocin receptor C47A mutant high affinity site expressed in HEK293 cells coexpressing Rluc8-tagged Galphaq, N-terminal GFP-tagged Ggamma2 and Gbeta1 protein incubated for 2 mins by Gq protein activation based BRET assay. Format: cell-based.
T6 sequence (P30559 whole entry C47A): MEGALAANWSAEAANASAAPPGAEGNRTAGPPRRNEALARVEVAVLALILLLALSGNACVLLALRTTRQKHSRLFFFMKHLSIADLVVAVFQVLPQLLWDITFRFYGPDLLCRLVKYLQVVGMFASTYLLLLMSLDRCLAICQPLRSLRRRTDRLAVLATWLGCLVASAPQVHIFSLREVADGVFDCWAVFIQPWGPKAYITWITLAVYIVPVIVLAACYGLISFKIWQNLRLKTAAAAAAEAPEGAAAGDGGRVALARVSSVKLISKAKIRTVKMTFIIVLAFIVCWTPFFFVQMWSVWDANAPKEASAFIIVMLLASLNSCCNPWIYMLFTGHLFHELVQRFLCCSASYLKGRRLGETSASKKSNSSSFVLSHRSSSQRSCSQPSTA
Assay [12] deals with T6, Oxytocin receptor. Kind of assay: Agonist activity at human oxytocin receptor C47A mutant low affinity site expressed in HEK293 cells coexpressing Rluc8-tagged Galphaq, N-terminal GFP-tagged Ggamma2 and Gbeta1 protein incubated for 2 mins by Gq protein activation based BRET assay. The class given is cell-based.
Assay [13] concerns the target T3, Oxytocin receptor. Kind of assay: Agonist activity at human oxytocin receptor high affinity site expressed in HEK293 cells coexpressing Rluc8-tagged Galphaq, N-terminal GFP-tagged Ggamma2 and Gbeta1 protein incubated for 2 mins by Gq protein activation based BRET assay. Format: cell-based.
Assay [14] is filed under the species Mus musculus. Kind of assay: Potency index, ratio of oxytocin dose to compound dose for OXTR+/- DBA/2J mouse assessed as increase in time spent exploring stranger mouse over time spent exploring empty cage. The class given is functional.
Assay [15] deals with T2, Oxytocin receptor (Homo sapiens). Kind of assay: Ratio of EC50 for human oxytocin receptor low affinity site expressed in HEK293 cells coexpressing Rluc8-tagged Galphaq, N-terminal GFP-tagged Ggamma2 and Gbeta1 protein to Ki for human oxytocin receptor low affinity site expressed in COS7 cell membrane. Format: cell-based.
The target in assay [16] is T3, Oxytocin receptor. Kind of assay: Agonist activity at human oxytocin receptor low affinity site expressed in HEK293 cells coexpressing Rluc8-tagged Galphaq, N-terminal GFP-tagged Ggamma2 and Gbeta1 protein incubated for 2 mins by Gq protein activation based BRET assay. The class given is cell-based.
Assay [17] has as its target T2, Oxytocin receptor (Homo sapiens). Kind of assay: Ratio of EC50 for human oxytocin receptor high affinity site expressed in HEK293 cells coexpressing Rluc8-tagged Galphaq, N-terminal GFP-tagged Ggamma2 and Gbeta1 protein to Ki for human oxytocin receptor high affinity site expressed in COS7 cell membrane. Format: cell-based.
Assay [18] concerns the target T3, Oxytocin receptor. Kind of assay: Agonist activity at human oxytocin receptor high affinity site expressed in HEK293 cells coexpressing Rluc8-tagged Galphaq, N-terminal GFP-tagged Ggamma2 and Gbeta1 protein incubated for 2 mins in presence of TMH5-TAT peptide by Gq protein activation based BRET assay. The class given is cell-based.
Assay [19] concerns the target T6, Oxytocin receptor. The assay is described as §3. Format: cell-based.
The species named for assay [20] is Danio rerio. Kind of assay: Potency index, ratio of isotocin dose to compound dose for effect on shoaling behavior in zebra fish. The class given is functional.
In assay [21] the test system is Mus musculus. Kind of assay: Effect on social behavior in OXTR+/- DBA/2J mouse assessed as increase in time spent exploring stranger mouse over time spent exploring empty cage at 0.005 ng/mouse, icv measured for 10 mins by three chamber method. Format: functional, organism-based.
Assay [22] concerns the target T1, Oxytocin receptor. The assay is described as §5. Format: cell-based.
Assay [23] deals with T3, Oxytocin receptor. Kind of assay: Agonist activity at human oxytocin receptor low affinity site expressed in HEK293 cells coexpressing Rluc8-tagged Galphaq, N-terminal GFP-tagged Ggamma2 and Gbeta1 protein incubated for 2 mins in presence of TMH5-TAT peptide by Gq protein activation based BRET assay. The class given is cell-based.
Assay [24] relates to Danio rerio. Kind of assay: Effect on social behavior in zebra fish assessed as increase in time spent swimming parallel to nacre mutant fish over time spent shoaling close to wild type fish at 0.2 ng/kg, im. Format: functional, organism-based.
For assay [25], the target named is T2, Oxytocin receptor (Homo sapiens). Kind of assay: Displacement of [125I]-OVTA from human oxytocin receptor expressed in COS7 cell membrane. Format: cell membranes. (In general: Loss of bound radioactivity is the signal in a displacement assay; it reports binding, not function.)

The term pEC50 denotes the negative decadic logarithm of the EC50, by convention in mol/L.

T1 sequence (P30559 whole entry V43A/C47A): as the sequence (P30559 whole entry C47A) above, with V43A counted along it

On to `CC[C@H](C)[C@@H]1NC(=O)[C@H](Cc2ccc(O)cc2)NC(=O)CCSSC[C@@H](C(=O)N2CCC[C@H]2C(=O)N[C@@H](CCCCNC(=O)CCCCCCCCCCCCC(=O)NCCCC[C@H](NC(=O)[C@@H]2CCCN2C(=O)[C@@H]2CSSCCC(=O)N[C@@H](Cc3ccc(O)cc3)C(=O)N[C@@H]([C@@H](C)CC)C(=O)N[C@@H](CCC(N)=O)C(=O)N[C@@H](CC(N)=O)C(=O)N2)C(=O)NCC(N)=O)C(=O)NCC(N)=O)NC(=O)[C@H](CC(N)=O)NC(=O)[C@H](CCC(N)=O)NC1=O` (I: [Mpa]YIQNCPKG-NH2 / II: [Mpa]YIQNCPKG-NH2; disulfide I:1-I:6, II:1-II:6; linker I:8-II:8 via C14 diacid), for which the pEC50 in assay [1] was 10.96; in assay [3], 7.23; in assay [5] it was 7.81; in [8], 7.53; in assay [10], 6.06; in assay [11] it was 11.85. This compound gave a pEC50 in [12] of 6.52. Moreover, the Emax in [2] is -0.145; in assay [4], -0.144; in assay [6] it was -0.11; in assay [7], -0.1; in assay [9] it was -0.11.

Take `CC[C@H](C)[C@@H]1NC(=O)[C@H](Cc2ccc(O)cc2)NC(=O)CCSSC[C@@H](C(=O)N2CCC[C@H]2C(=O)N[C@@H](CCCCNC(=O)CCCCCCC(=O)NCCCC[C@H](NC(=O)[C@@H]2CCCN2C(=O)[C@@H]2CSSCCC(=O)N[C@@H](Cc3ccc(O)cc3)C(=O)N[C@@H]([C@@H](C)CC)C(=O)N[C@@H](CCC(N)=O)C(=O)N[C@@H](CC(N)=O)C(=O)N2)C(=O)NCC(N)=O)C(=O)NCC(N)=O)NC(=O)[C@H](CC(N)=O)NC(=O)[C@H](CCC(N)=O)NC1=O` (I: [Mpa]YIQNCPKG-NH2 / II: [Mpa]YIQNCPKG-NH2; disulfide I:1-I:6, II:1-II:6; linker I:8-II:8 via Suberoyl): the pEC50 in assay [13] was 12.10; in [16] it was 7.17; in assay [18], 10.93; in [5] it was 7.71; in assay [19], 7.39; in [22] it was 6.93. In addition, the pEC50 in assay [23] was 7.48. The Ratio was 100 in [14], 10 in [15], 10 in [17] and 40 in assay [20]. For the same compound, the Emax in assay [2] is -0.15; in [4], -0.16; in [6], -0.14; in [7], -0.11; in assay [9], -0.1. Moreover, the result in [21] and in assay [24] was Active. The compound further showed a KiH in [25] of 0.08 pM. For the same compound, the KiL in assay [25] worked out at 1.24 nM.
